The results in this text go back to US10323021B2, “Triazoles as NR2B receptor inhibitors” (Janssen Pharmaceuticals, Inc., priority 2014, dated 2019).

This assay has as its target rat NR1/NR2B receptor (Rattus norvegicus (Rat), UniProt P35439+Q00960). The experiment in a line: NR2B binding assay: inhibition of specific [3H]-Ifenprodil binding to the rat NR1/NR2B receptor. Particulars: for inhibition at 1 µM: 1 μM test compound, read-out: NR2B binding assay % INH @ 1 μM; for inhibition at 10 µM: 10 μM test compound, read-out: NR2B binding assay % INH @ 10 μM. As for the experimental part:
Inhibition of Specific Binding to the Rat NR1/NR2B Receptor
Male Wistar rats (180 to 200 g) were killed by suffocation in a CO2 chamber for two minutes. Whole brains without cerebellum were removed and dissected on ice, placed into closed vials and stored at −70° C.
Membrane fractions were prepared and tested using standard techniques. At the time of the assay, 1 g of the brains was placed into 25 ml of 50 mM Tris/10 mM EDTA buffer, pH 7.1, (25 vol. per g of original tissue) and homogenized for 30 sec at 20000 rpm with an Ultraturrax T25 (Jahnke & Kunkel, IKA-Labortechnik, Staufen, Germany). The homogenate was centrifuged at 4° C. for 10 min at 48000 g (OPTIMA L-70, Beckman, Palo Alto, Calif. 94304, USA).
The supernatant was discarded and the pellet was homogenized on ice for 30 sec at 20000 rpm with an Ultraturrax and again centrifuged at 48000 g for 30 minutes at 4° C. The resulted pellet was resuspended in 25 ml of 50 mM Tris/10 mM EDTA buffer, homogenized for 30 sec with an Ultraturrax, aliquoted, frozen at −70° C. and stored until use.
After thawing on the day of the assay, a 5 ml membrane aliquot was centrifuged at 48000 g for 30 min at 4° C. The pellet was resuspended in 5 ml of 5 mM Tris/1 mM EDTA buffer, pH 7.4, homogenized for 30 sec at 20000 rpm with an Ultraturrax and centrifuged at 48000 g for 30 min at 4° C. This was repeated twice. The final pellet was homogenized in 5 ml of 5 mM Tris/1 mM EDTA buffer at 4° C. with an Ultraturrax and used for the Ifenprodil-binding assay as described in the following.
Nonspecific binding was estimated in the presence of […] CP101.606. The samples were incubated for 60 min. at 4° C.
The incubation was terminated by filtration of the membrane preparations using Filtermat B (Pharmacia, Uppsala Sweden) and a Micro Cell Harvester (Skatron, Lier, Norway). The Filtermat B had been presoaked with 1% polyethylene imine and carefully washed with 50 mM Tris/HCl-buffer pH 7.7 after the filtration to separate free and bound radioactivity.
The optimal amount of membrane preparation in the assay had been determined and optimized for each membrane preparation separately before the test.
For pipetting of the incubation mixture we routinely used the robot Biomek2000 (Fa. Beckman).
For determination of IC50 values the Hill-plot, 2-parameter-model was used.

rat NR1/NR2B receptor, sequence (Q00960 27-1482, other chains not shown): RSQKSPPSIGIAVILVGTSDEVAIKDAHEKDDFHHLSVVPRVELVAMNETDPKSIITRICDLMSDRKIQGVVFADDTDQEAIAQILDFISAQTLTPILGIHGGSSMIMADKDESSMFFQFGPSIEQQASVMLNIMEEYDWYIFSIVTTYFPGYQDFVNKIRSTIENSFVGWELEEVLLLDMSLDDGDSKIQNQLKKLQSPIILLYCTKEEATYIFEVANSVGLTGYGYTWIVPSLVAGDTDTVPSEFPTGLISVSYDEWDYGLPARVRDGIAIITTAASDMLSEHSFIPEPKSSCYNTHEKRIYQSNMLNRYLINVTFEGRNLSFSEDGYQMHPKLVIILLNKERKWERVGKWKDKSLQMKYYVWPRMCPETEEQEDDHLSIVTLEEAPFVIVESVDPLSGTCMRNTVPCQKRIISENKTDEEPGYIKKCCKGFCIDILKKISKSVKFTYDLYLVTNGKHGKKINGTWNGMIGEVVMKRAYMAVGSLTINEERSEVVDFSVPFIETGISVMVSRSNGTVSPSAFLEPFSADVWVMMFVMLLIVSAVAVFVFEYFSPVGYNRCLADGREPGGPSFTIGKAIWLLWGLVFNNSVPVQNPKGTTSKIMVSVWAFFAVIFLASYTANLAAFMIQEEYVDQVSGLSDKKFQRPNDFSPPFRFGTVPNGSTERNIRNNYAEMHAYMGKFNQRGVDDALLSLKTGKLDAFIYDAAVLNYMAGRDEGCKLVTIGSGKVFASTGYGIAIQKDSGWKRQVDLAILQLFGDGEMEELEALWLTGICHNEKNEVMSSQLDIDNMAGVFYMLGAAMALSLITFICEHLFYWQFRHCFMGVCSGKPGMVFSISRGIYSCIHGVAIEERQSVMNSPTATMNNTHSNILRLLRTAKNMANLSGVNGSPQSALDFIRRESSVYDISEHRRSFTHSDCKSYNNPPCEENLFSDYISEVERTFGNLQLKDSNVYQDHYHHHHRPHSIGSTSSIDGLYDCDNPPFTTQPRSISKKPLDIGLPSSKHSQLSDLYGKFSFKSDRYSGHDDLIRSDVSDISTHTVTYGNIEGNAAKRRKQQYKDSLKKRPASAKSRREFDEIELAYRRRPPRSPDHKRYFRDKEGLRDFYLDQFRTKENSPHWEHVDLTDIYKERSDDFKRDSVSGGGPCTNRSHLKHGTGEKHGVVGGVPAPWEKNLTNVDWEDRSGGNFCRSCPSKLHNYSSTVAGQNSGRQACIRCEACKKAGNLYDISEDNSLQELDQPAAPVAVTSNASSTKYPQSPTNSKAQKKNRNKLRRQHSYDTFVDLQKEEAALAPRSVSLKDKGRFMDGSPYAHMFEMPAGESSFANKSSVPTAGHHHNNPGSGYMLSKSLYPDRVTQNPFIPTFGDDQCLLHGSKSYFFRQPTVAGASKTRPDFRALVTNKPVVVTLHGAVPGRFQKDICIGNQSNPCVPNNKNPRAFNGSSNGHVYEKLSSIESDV

Turning to `Cc1nc(C)n(Cc2cn(-c3ccc(Cl)cc3)nn2)n1` [Example 1, 1-(4-Chloro-phenyl)-4-(3,5-dimethyl-[1,2,4]triazol-1-ylmethyl)-1H-[1,2,3]triazole], the inhibition at 1 µM worked out at 12.4% and the inhibition at 10 µM was found to be 31.5%.

On to `CCCc1ncnn1Cc1cn(-c2ccc(Cl)cc2)nn1` [Example 2, 1-(4-Chloro-phenyl)-4-(5-propyl-[1,2,4]triazol-1-ylmethyl)-1H-[1,2,3]triazole], for which the inhibition at 1 µM turned out to be 23.9% and the inhibition at 10 µM amounted to 43%.

Take `CCCc1ncn(Cc2cn(-c3ccc(Cl)cc3)nn2)n1` [Example 3, 1-(4-Chloro-phenyl)-4-(3-propyl-[1,2,4]triazol-1-ylmethyl)-1H-[1,2,3]triazole]: the inhibition at 1 µM was 18.3% and the inhibition at 10 µM stood at 4.5%.

In the case of `CC(C)c1ncn(Cc2cn(-c3ccc(Cl)cc3)nn2)n1` [Example 4, 1-(4-Chloro-phenyl)-4-(3-isopropyl-[1,2,4]triazol-1-ylmethyl)-1H-[1,2,3]triazole], the inhibition at 1 µM stood at 21.6% and the inhibition at 10 µM was 2%.

In the case of `CCc1ncnn1Cc1cn(-c2ccc(Cl)cc2)nn1` [Example 5, 1-(4-Chloro-phenyl)-4-(5-ethyl-[1,2,4]triazol-1-ylmethyl)-1H-[1,2,3]triazole], the inhibition at 1 µM was 1.2% and the inhibition at 10 µM amounted to 30.1%.

On to `CCc1ncn(Cc2cn(-c3ccc(Cl)cc3)nn2)n1` [Example 6, 1-(4-Chloro-phenyl)-4-(3-ethyl-[1,2,4]triazol-1-ylmethyl)-1H-[1,2,3]triazole], for which the inhibition at 1 µM was determined as 11.8% and the inhibition at 10 µM was 21.6%.

Consider `CC(C)c1ncnn1Cc1cn(-c2ccc(Cl)cc2)nn1` [Example 7, 1-(4-Chloro-phenyl)-4-(5-isopropyl-[1,2,4]triazol-1-ylmethyl)-1H-[1,2,3]triazole], for which the inhibition at 1 µM came out at 2.3% and the inhibition at 10 µM was found to be 40.9%.

As for `Cc1ncnn1Cc1cn(-c2ccc(Cl)cc2)nn1` [Example 8, 1-(4-Chloro-phenyl)-4-(5-methyl-[1,2,4]triazol-1-ylmethyl)-1H-[1,2,3]triazole], the inhibition at 1 µM was found to be 8.3% and the inhibition at 10 µM was 38.7%.

For `Cc1ncn(Cc2cn(-c3ccc(Cl)cc3)nn2)n1` [Example 9, 1-(4-Chloro-phenyl)-4-(3-methyl-[1,2,4]triazol-1-ylmethyl)-1H-[1,2,3]triazole], the inhibition at 1 µM was determined as 6.6% and the inhibition at 10 µM was 17.9%.

As to `Clc1ccc(-n2cc(Cn3nc(C4CC4)nc3C3CC3)nn2)cc1` [Example 10, 1-(4-Chlorophenyl)-4-(3,5-dicyclopropyl-[1,2,4]triazol-1-ylmethyl)-1-[1,2,3]triazole], the inhibition at 1 µM was -6% and the inhibition at 10 µM was 3.5%.

With `Clc1ccc(-n2cc(Cn3ncnc3C3CCC3)nn2)cc1` [Example 11, 1-(4-Chloro-phenyl)-4-(5-cyclobutyl-[1,2,4]triazol-1-ylmethyl)-1H-[1,2,3]triazole], the inhibition at 1 µM worked out at 8.7% and the inhibition at 10 µM was 41.5%.

With `Clc1ccc(-n2cc(Cn3cnc(C4CCC4)n3)nn2)cc1` [Example 12, 1-(4-Chloro-phenyl)-4-(3-cyclobutyl-[1,2,4]triazol-1-ylmethyl)-1H-[1,2,3]triazole], the inhibition at 1 µM was -0.66% and the inhibition at 10 µM is 11%.

Consider `Clc1ccc(-n2cc(Cn3cnc(C4CC4)n3)nn2)cc1` [Example 13, 1-(4-Chloro-phenyl)-4-(3-cyclopropyl-[1,2,4]triazol-1-ylmethyl)-1H-[1,2,3]triazole], for which the inhibition at 1 µM was 7.5% and the inhibition at 10 µM turned out to be 16.2%.

Regarding `Clc1ccc(-n2cc(Cn3ncnc3C3CCCC3)nn2)cc1` [Example 14, 1-(4-Chloro-phenyl)-4-(5-cyclopentyl-[1,2,4]triazol-1-ylmethyl)-1H-[1,2,3]triazole], the inhibition at 10 µM came out at 49.6%.

On to `Clc1ccc(-n2cc(Cn3cnc(C4CCCC4)n3)nn2)cc1` [Example 15], for which the inhibition at 1 µM is 6.4% and the inhibition at 10 µM was 22.2%.

`Clc1ccc(-n2cc(Cn3ncnc3C3CC3)nn2)cc1` [Example 16, 1-(4-Chloro-phenyl)-4-(5-cyclopropyl-[1,2,4]triazol-1-ylmethyl)-1H-[1,2,3]triazole]: the inhibition at 1 µM came to 3.6% and the inhibition at 10 µM amounted to 32.6%.

`FC(F)(F)c1ncn(Cc2cn(-c3ccc(Cl)cc3)nn2)n1` [Example 17, 1-(4-Chloro-phenyl)-4-(3-trifluoromethyl-[1,2,4]triazol-1-ylmethyl)-1H-[1,2,3]triazole]: the inhibition at 1 µM came out at 19.9% and the inhibition at 10 µM amounted to 12.5%.

Consider `CC(C)(C)c1ncnn1Cc1cn(-c2ccc(Cl)cc2)nn1` [Example 19, 4-(5-tert-Butyl-[1,2,4]triazol-1-ylmethyl)-1-(4-chloro-phenyl)-1H-[1,2,3]triazole], for which the inhibition at 1 µM worked out at 8.2% and the inhibition at 10 µM turned out to be 14.5%.

On to `CC(C)(C)c1ncn(Cc2cn(-c3ccc(Cl)cc3)nn2)n1` [Example 20, 4-(3-tert-Butyl-[1,2,4]triazol-1-ylmethyl)-1-(4-chloro-phenyl)-1H-[1,2,3]triazole], for which the inhibition at 1 µM stood at 27% and the inhibition at 10 µM was 15.3%.

`Cc1nc(C2CCC2)n(Cc2cn(-c3ccc(Cl)cc3)nn2)n1` [Example 21, 1-(4-Chloro-phenyl)-4-(5-cyclobutyl-3-methyl-[1,2,4]triazol-1-ylmethyl)-1H-[1,2,3]triazole]: the inhibition at 1 µM is -1.6% and the inhibition at 10 µM is 6.8%.

Turning to `Cc1nc(C2CCC2)nn1Cc1cn(-c2ccc(Cl)cc2)nn1` [Example 22, 1-(4-Chloro-phenyl)-4-(3-cyclobutyl-5-methyl-[1,2,4]triazol-1-ylmethyl)-1H-[1,2,3]triazole], the inhibition at 1 µM was found to be 14.5% and the inhibition at 10 µM was -2.2%.

Take `Clc1ccc(-n2cc(Cn3ccnc3Cl)nn2)cc1` [Example 26, 4-(2-Chloro-imidazol-1-ylmethyl)-1-(4-chloro-phenyl)-1H-[1,2,3]triazole]: the inhibition at 1 µM was 28.7% and the inhibition at 10 µM came to 51.4%.

Regarding `CC(C)(C)c1nccn1Cc1cn(-c2ccc(Cl)cc2)nn1` [Example 30, 4-(2-tert-Butyl-imidazol-1-ylmethyl)-1-(4-chloro-phenyl)-1H-[1,2,3]triazole], the inhibition at 1 µM turned out to be 12.7% and the inhibition at 10 µM stood at 53.2%.

As to `Cc1nncn1Cc1cn(-c2ccc(Cl)cc2)nn1` [Example 31, 1-(4-Chloro-phenyl)-4-(3-methyl-[1,2,4]triazol-4-ylmethyl)-1H-[1,2,3]triazole], the inhibition at 1 µM came out at 3.7% and the inhibition at 10 µM was determined as 2.2%.

As for `Cc1nc(C)n(Cc2cn(-c3ccccc3)nn2)n1` [Example 46, 4-(3,5-Dimethyl-[1,2,4]triazol-1-ylmethyl)-1-phenyl-1H-[1,2,3]triazole], the inhibition at 1 µM stood at 9.3% and the inhibition at 10 µM was found to be 7.4%.

`Cc1nc(CO)n(Cc2cn(-c3ccccc3)nn2)n1` [Example 47, 4-(5-Hydroxymethyl-3-methyl-[1,2,4]triazol-1-ylmethyl)-1-phenyl-1H-[1,2,3]triazole]: the inhibition at 1 µM came out at 33.8% and the inhibition at 10 µM was -8.4%.
